Publication PMC8402547, “In Vitro and In Vivo Analysis of Ochratoxin A-Derived Glucuronides and Mercapturic Acids as Biomarkers of Exposure” (Toxins, 2021)

Assays:
[1] = In vitro incubation of OTA with liver S9 and UDP-glucuronic acid (glucuronide formation); type: in vitro ADME; settings: OTA 0.1 mM, UDPGA 5 mM, 37 °C
Method: (§1) Liver S9 fractions from rats (Sprague-Dawley, male, 97 donors, 20 mg/mL) and humans (mixed genders, 50 donors, 20 mg/mL) were obtained from XenoTech (Kansas City, USA). S9 fractions from Goettingen® minipigs and rabbits were prepared in-house based on a modified protocol from Hubbard et al. (1985). Rabbit liver (Blue Vienna x German Giant, female) was obtained from ImmonuGlobe (Himmelstadt, Germany), whereas minipig liver (Goettingen® minipig, male, 42.4 kg bw) was obtained from the University Goettingen, Department of Animal Science.
(§2) For analysis of OTA-derived glucuronides, liver S9 fractions (4 mg/mL) of rats, rabbit, minipigs and humans were incubated with OTA (0.1 mM), uridine-diphosphate-glucuronic acid (5 mM) and magnesium chloride (5 mM) in 100 mM phosphate-buffered saline (pH 7.4) in a total volume of 300 µL at 37 °C for two hours. Control incubations were carried out in the absence of uridine-diphosphate-glucuronic acid. […] Ten microliters (10 µL) of each sample was injected into the LC–MS system and analyzed using the method described below. […]
(§3) The API 2000/Q-Trap mass spectrometer was operated with a Turbo Ion Spray source in negative ion mode with a voltage of −4000 V. Spectral data were recorded with N2 as the heater gas at 450 °C and as the collision gas (CAD = −2) in multiple reaction monitoring mode (MRM).

[2] = as above; type: in vitro ADME, rat
Method: as §1, §2, §3

[3] = as above; type: in vitro ADME, human
Method: as §1, §2, §3

CC1Cc2c(Cl)cc(C(=O)NC(Cc3ccccc3)C(=O)OC3OC(C(=O)O)C(O)C(O)C3O)c(O)c2C(=O)O1 (stereo not drawn) [OTA-Glucuronide]
detected: Formation of OTA glucuronide (m/z transitions 578/402 and 578/358) ([1]; minipig liver S9 4 mg/mL) | Formation of OTA glucuronide (m/z transitions 578/402 and 578/358) ([1]; rabbit liver S9 4 mg/mL) | Formation of OTA glucuronide (m/z transitions 578/402 and 578/358) ([2]; rat liver S9 4 mg/mL, OTA 0.1 mM, UDPGA 5 mM, 37 °C) | Formation of OTA glucuronide (m/z transitions 578/402 and 578/358) ([3]; human liver S9 4 mg/mL, OTA 0.1 mM, UDPGA 5 mM, 37 °C)
5–10 times: OTA-glucuronide formed as compared to rabbit and minipig samples (signal intensities) ([2]; rat liver S9 vs rabbit and minipig liver S9) | OTA-glucuronide formed as compared to rabbit and minipig samples (signal intensities) ([3]; human liver S9 vs rabbit and minipig liver S9)
